# Test results from patent US20030207813A1, “Retroviral protease inhibitor combinations” (priority 1995, published 2003).
# Read-outs that look alike come from different tables or passages of the source.
# Test system: SF162R (resistant strains selected from SF162 against Example 1)
# Assay: Acute infectivity assay in PHA-activated donor lymphocytes, resistant isolate SF162R
# Type: cell-based, HIV-1
# Settings: Human immunodeficiency virus 1, Lymphocyte
# Protocol: Approximately 3×10^7 cells are activated for 48 hours with about 3-5 μg/ml PHA in RPMI continuing 10% fetal bovine serum and IL-2 (10 U/ml). Quantitated virus stocks are added to the activated lymphocyte suspension at a multiplicity of infection of about 0.001-0.01. The cell-virus suspension is incubated at 37° C. for 2 hours to allow virus absorption. The residual virus inoculum is removed by centrifugation and the cells are resuspended in RPMI containing 10% FBS and 10 U/ml IL-2. These infected cells are added to the test-article diluted in complete tissue culture medium from a stock (10 mg/ml) in DMSO in 96 well microtiter plates to give about 5×10^5 cells per well per 200 μl. Infected, untreated cells and cells treated with DMSO alone (0.1%) or either AZT or DDI were used as controls. The cultures were examined for syncytia formation on days 7 and 11 post-infection or the supernants tested for reverse transcriptase activity or p24 antigen.
# RF represents the HIV-1 strain HIV-LRF and RFR represents a mixture of resistant strains obtained by selection of RF against the compound of Example 1. RFR comprises a mixture of viral strains having protease genotypes of G48V (14/40 clones); G48V, V82A (18/40 clones); G48V, L90S (2/40 clones); G48V, 154T, V82A (1/40 clones); G48M (1/40 clones); G48V, Q61H (1/40 clones); V13I, G48V (1/40 clones); G48V, F53L, V82A (1/40 clones); and G48V, V82A, C95Y (1/40 clones). RFR2 represents a mixture of resistant strains obtained by cloning RFR by three rounds of growth at limiting dilution. RFR2 comprises a mixture of viral strains having protease genotypes of G48V, V82A (13/15 clones); G17E, G48V, V82A (1/15 clones); and G48V, V82A, N37D, N88D (1/15 clones). RFRR represents a mixture of resistant strains obtained by selection of RF against the compounds of Examples 1 and 2 and then cloning by three rounds of growth at limiting dilution. RFRR comprises a mixture of viral strains having protease genotypes of G48V, 154T, L63P, V82A (7/9 clones); G48V, 154T, L63P, V82A, N88S (1/9 clones); and G48V, 154T, L63P, G73M, V82A (1/9 clones). SF162 represents the HIV-1 strain SF-162 and SF162R represents a mixture of resistant strains obtained by selection of SF162 against the compound of Example 1. SF162R comprises a mixture of viral strains having protease genotypes of M461, F53L, L63P, A71V, N88D (2/3 clones); and M46I, F53L, L63P, A71V, N88D, Q92R (1/3 clones). 89-959 represents the HIV-1 strain 89-959 and 89-959R represents a mixture of resistant strains obtained by selection of 89-959 against the compound of Example 2. 89-959R comprises a mixture of viral strains having protease genotypes of N88S (4/5 clones); and D25N, T26A, D30N, D37N, R41K, G73D, R87K, N88S (1/4 clones). NL4 represents the HIV-1 strain HIV-1NL4-3. NL4(G48V) represents a strain having a synthetically generated site-directed mutation in the protease from glycine to valine at amino acid position number 48. NL4(I84V) represents a strain having a synthetically generated site-directed mutation in the protease from isoleucine to valine at amino acid position number 84. NL4(R8Q,M46I) represents a strain having synthetically generated site-directed mutations in the protease from arginine to glutamine at amino acid position number 8 and methionine to isoleucine at amino acid position number 46. NL4(P22-538) represents a mixture of resistant strains obtained by selection of HIV-1NL4-3 against the compound of Example 10 after 22 passages comprising protease genotypes M46I, L63P, A71V, V82F, I84V (4/10); M46I, L63P, V82F, I84V (3/10); and M46I, A71V, V82F, I84V (3/10). NL4(P37-538) represents resistant strains obtained by selection of HIV-1NL4-3 against the compound of Example 10 after 37 passages comprising protease genotype M46I, L63P, A71V, 184A. NL4(538/524) represents resistant strains obtained by selection of NL4(P22-538) against the compound of Example 5 after 24 passages comprising protease genotype M46I, L63P, A71V, 184A. […]
# [1] = Table 1, read-out: Virus Isolate (EC50 ng/mL) SF162R
# [2] = Table 2, read-out: Virus Isolate (EC50 ng/mL) SF162R
SMILES,EC50 [1],EC50 [2]
"CNCC(=O)N[C@H](C(=O)N[C@@H](Cc1ccccc1)[C@H](O)CN(CCC(C)C)C(=O)NC(C)(C)C)C(C)(C)C [Example 2, (2R,3S)-3-(N-methylaminoacetyl-L-tert-butylglycinyl)amino-1-(N-isoamyl-N-(tert-butylcarbamoyl))amino-4-phenyl-2-butanol]",6 ng/mL,
"CC(C)(C)NC(=O)[C@@H]1CC2CCCC[C@@H]2CN1C[C@@H](O)[C@H](Cc1ccccc1)NC(=O)[C@H](CC(N)=O)NC(=O)c1ccc2ccccc2n1 (stereo in doubt) [Example 6, N-tert-Butyl decahydro-2-[2(R)-hydroxy-4-phenyl-3(S)-[[N-(2-quinolylcarbonyl)-L-asparaginyl]amino]butyl]-(4aR,8aS)-isoquinoline-3(S)-carboxamide]",11 ng/mL,
"CC(C)CN(C[C@@H](O)[C@H](Cc1ccccc1)NC(=O)[C@H](CC(N)=O)NC(=O)c1ccc2ccccc2n1)S(=O)(=O)NC(C)(C)C [Example 8, N-[3-[N^2-[N^1-(1,1-dimethylethyl)aminosulfonyl]-N^2-(2-methylpropyl)amino]-2R-hydroxy-1S-(phenylmethyl)propyl]-2S-[(2-quinolinylcarbonyl)amino]butanediamide]",,98 ng/mL
"CC(C)CCN(C[C@@H](O)[C@H](Cc1ccccc1)NC(=O)[C@H](CC(N)=O)NC(=O)c1ccc2ccccc2n1)C(=O)NC(C)(C)C (relative stereo) [Example 7, [1S-[1R*(R*),2S*]]-N^1-[3-[[[(1,1-dimethylethyl)amino]carbonyl](3-methylbutyl)amino]-2-hydroxy-1-(phenylmethyl)propyl]-2-[(2-quinolinylcarbonyl)amino]-butanediamide]",,108 ng/mL
"CC(C)CN(C[C@@H](O)[C@H](Cc1ccccc1)NC(=O)[C@H](CC(N)=O)NC(=O)c1ccc2ccccc2n1)C(=O)NC(C)(C)C (relative stereo) [Example 1, [1S-[1R*(R*),2S*]]-N^1-[3-[[[(1,1-dimethylethyl)amino]carbonyl])2-methylpropyl)amino]-2-hydroxy-1-(phenylmethyl)propyl]-2-[(2-quinolinylcarbonyl)amino]-butanediamide]",443 ng/mL,111 ng/mL
